According to the NIST ThermoML archive (doi:10.1016/j.jct.2016.11.030):
Numbers after ± are expanded uncertainties.

How the values were obtained:
[1] = Crystal; DTA
[2] = Molar enthalpy of transition or fusion; settings: Crystal; DSC

Normal melting temperature [1]: 116 ± 1.1 °C
Molar enthalpy of transition or fusion [2]: 7.35 ± 0.335 kcal/mol
Structure (SMILES): COc1cc(CO)ccc1O [4-hydroxy-3-methoxybenzyl alcohol]
